Measured values from patent US4495202A, “Terphenyl derivatives and pharmaceutical uses thereof” (Eli Lilly and Company, priority 1983, dated 1985).
Like-named read-outs stand apart in the source and are kept apart here.

How the values were obtained:
[1] = tested on: Cox standard strain albino male mice; experiment: standard mouse writhing assay (acetic acid-induced writhing); format: in vivo
Procedure: The analgesic activity of a number of compounds provided by this invention has been determined in the standard mouse writhing assay. Writhing, which is characterized by contraction of the abdominal musculature, extension of the hindlegs, and rotation of the trunk, was induced in Cox standard strain albino male mice. […] Each treatment group consisted of five mice. The total number of writhes for the treatment group was determined during a 10-minute observation starting five minutes after acetic acid administration. […] Table I which follows presents typical test results obtained with certain of the compounds of this invention. The results in the mouse writhing assay are presented as the effective oral (p.o.) dose in mg./kg. of the tested compound required to inhibit induced writhing in the test animals by fifty percent (ED50).

male Lewis-Wistar rats = experiment: Established adjuvant-induced arthritis test in rats; format: in vivo; details: rat, days 15-29, from areas under the curves of uninjected paw volume
[2] = 3 h, oral gavage in corn oil-acacia emulsion (5%), three hours before acetic acid (0.60 percent, i.p.), inhibition of writhing by fifty percent, read-out: Mouse Writhing ED50
[3] = 25 mg./kg. p.o. × 15, corn oil-acacia emulsion by gavage
[4] = 10 mg./kg. p.o. × 15, corn oil-acacia emulsion by gavage

## COc1ccc(-c2ccc(-c3ccccc3)cc2-c2ccc(OC)cc2)cc1 [Example 2, 4'-Phenyl-4,4"-dimethoxy-1,1':2',1"-terphenyl]
[1]; [2]
  ED50: 14.6 mg/kg
Male Lewis-Wistar rats; [3]
  % Inhibition of Uninjected Paw Volume Inflammation, Days 14 through 30: 13%

## COc1ccc(-c2ccc(-c3cccc(F)c3)cc2-c2ccc(OC)cc2)cc1 [Example 5, 4'-(3-Fluorophenyl)-4,4"-dimethoxy-1,1':2',1"-terphenyl]
[1]; [2]
  ED50: 8.9 mg/kg
Male Lewis-Wistar rats; [3]
  % Inhibition of Uninjected Paw Volume Inflammation, Days 14 through 30: 40%

## COc1ccc(-c2ccc(-c3ccc(Br)cc3)cc2-c2ccc(OC)cc2)cc1 [Example 4, 4'-(4-Bromophenyl)-4,4"-dimethoxy-1,1':2',1"-terphenyl]
[1]; [2]
  ED50: 72.8 mg/kg
Male Lewis-Wistar rats; [3]
  % Inhibition of Uninjected Paw Volume Inflammation, Days 14 through 30: 34%

## COc1ccc(-c2ccc(C(F)(F)F)cc2-c2ccc(OC)cc2)cc1 [Example 6, 4'-Trifluoromethyl-4,4"-dimethoxy-1,1':2',1"-terphenyl]
[1]; [2]
  ED50: 5.6 mg/kg
Male Lewis-Wistar rats; [4]
  % Inhibition of Uninjected Paw Volume Inflammation, Days 14 through 30: 48%

## COc1ccc(-c2ccc(-c3ccc(Cl)cc3)cc2-c2ccc(OC)cc2)cc1 [Example 3, 4'-(4-Chlorophenyl)-4,4"-dimethoxy-1,1':2',1"-terphenyl]
[1]; [2]
  ED50: 14.2 mg/kg
Male Lewis-Wistar rats; [4]
  % Inhibition of Uninjected Paw Volume Inflammation, Days 14 through 30: 31%
Male Lewis-Wistar rats; [3]
  % Inhibition of Uninjected Paw Volume Inflammation, Days 14 through 30: 52%

## COc1ccc(-c2ccc(-c3ccc(F)cc3)cc2-c2ccc(OC)cc2)cc1 [Example 1, 4'-(4-Fluorophenyl)-4,4"-dimethoxy-1,1':2',1"-terphenyl]
[1]; [2]
  ED50: 11.8 mg/kg
[1]; 4 h, oral, at four hours post dosing, read-out: Mouse Writhing ED50 at four hours post dosing
  ED50: 3.9 mg/kg
Male Lewis-Wistar rats; [3]
  % Inhibition of Uninjected Paw Volume Inflammation, Days 14 through 30: 55%
